Data as given in paper PMC6199309, “A therapeutic approach to pantothenate kinase associated neurodegeneration” (Nature Communications, 2018).

What was measured:
INSR = target: T1, INSR (Homo sapiens, UniProt P06213); test: KINOMEscan; assay type: binding; conditions: read-out: %Ctrl @ 10000nM
T1 construct: purchased DiscoverX KINOMEscan

LCK = target: T2, LCK (Homo sapiens, UniProt P06239); test: KINOMEscan; assay type: binding; conditions: read-out: %Ctrl @ 10000nM
T2 construct: purchased DiscoverX KINOMEscan

PAK4 = target: T3, PAK4 (Homo sapiens, UniProt O96013); test: KINOMEscan; assay type: binding; conditions: read-out: %Ctrl @ 10000nM
T3 construct: purchased DiscoverX KINOMEscan

FGFR3(G697C) = target: T4, FGFR3(G697C) (Homo sapiens, UniProt P22607, G697C); test: KINOMEscan; assay type: binding; conditions: read-out: %Ctrl @ 10000nM
T4 construct: purchased DiscoverX KINOMEscan

PRKCH = target: T5, PRKCH (Homo sapiens, UniProt P24723); test: KINOMEscan; assay type: binding; conditions: read-out: %Ctrl @ 10000nM
T5 construct: purchased DiscoverX KINOMEscan

RIOK3 = target: T6, RIOK3 (Homo sapiens, UniProt O14730); test: KINOMEscan; assay type: binding; conditions: read-out: %Ctrl @ 10000nM
T6 construct: purchased DiscoverX KINOMEscan

FGFR1 = target: T7, FGFR1 (Homo sapiens, UniProt P11362); test: KINOMEscan; assay type: binding; conditions: read-out: %Ctrl @ 10000nM
T7 construct: purchased DiscoverX KINOMEscan

PAK1 = target: T8, PAK1 (Homo sapiens, UniProt Q13153); test: KINOMEscan; assay type: binding; conditions: read-out: %Ctrl @ 10000nM
T8 construct: purchased DiscoverX KINOMEscan

CLK2 = target: T9, CLK2 (Homo sapiens, UniProt P49760); test: KINOMEscan; assay type: binding; conditions: read-out: %Ctrl @ 10000nM
T9 construct: purchased DiscoverX KINOMEscan

GCN2(Kin.Dom.2,S808G) = target: T10, GCN2(Kin.Dom.2,S808G) (Homo sapiens, UniProt Q9P2K8, S808G); test: KINOMEscan; assay type: binding; conditions: read-out: %Ctrl @ 10000nM
T10 construct: GCN2(Kin.Dom.2,S808G); purchased DiscoverX KINOMEscan

[1] = target: T11, RPS6KA5(Kin.Dom.1-N-terminal) (Homo sapiens, UniProt O75582); test: KINOMEscan; assay type: binding; conditions: read-out: %Ctrl @ 10000nM
T11 construct: RPS6KA5(Kin.Dom.1-N-terminal); purchased DiscoverX KINOMEscan

EPHA6 = target: T12, EPHA6 (Homo sapiens, UniProt Q9UF33); test: KINOMEscan; assay type: binding; conditions: read-out: %Ctrl @ 10000nM
T12 construct: purchased DiscoverX KINOMEscan

TIE1 = target: T13, TIE1 (Homo sapiens, UniProt P35590); test: KINOMEscan; assay type: binding; conditions: read-out: %Ctrl @ 10000nM
T13 construct: purchased DiscoverX KINOMEscan

DAPK1 = target: T14, DAPK1 (Homo sapiens, UniProt P53355); test: KINOMEscan; assay type: binding; conditions: read-out: %Ctrl @ 10000nM
T14 construct: purchased DiscoverX KINOMEscan

DCAMKL2 = target: T15, DCAMKL2 (Homo sapiens, UniProt Q8N568); test: KINOMEscan; assay type: binding; conditions: read-out: %Ctrl @ 10000nM
T15 construct: purchased DiscoverX KINOMEscan

[2] = target: T16, ABL1(F317I)-phosphorylated (Homo sapiens, UniProt P00519, F317I); test: KINOMEscan; assay type: binding; conditions: read-out: %Ctrl @ 10000nM
T16 construct: purchased DiscoverX KINOMEscan

EGFR(G719S) = target: T17, EGFR(G719S) (Homo sapiens, UniProt P00533, G719S); test: KINOMEscan; assay type: binding; conditions: read-out: %Ctrl @ 10000nM
T17 construct: purchased DiscoverX KINOMEscan

MYLK4 = target: T18, MYLK4 (Homo sapiens, UniProt Q86YV6); test: KINOMEscan; assay type: binding; conditions: read-out: %Ctrl @ 10000nM
T18 construct: purchased DiscoverX KINOMEscan

ACVR1 = target: T19, ACVR1 (Homo sapiens, UniProt Q04771); test: KINOMEscan; assay type: binding; conditions: read-out: %Ctrl @ 10000nM
T19 construct: purchased DiscoverX KINOMEscan

EGFR(S752-I759del) = target: T20, EGFR(S752-I759del) (Homo sapiens, UniProt P00533, DEL752-759); test: KINOMEscan; assay type: binding; conditions: read-out: %Ctrl @ 10000nM
T20 construct: purchased DiscoverX KINOMEscan

TEC = target: T21, TEC (Homo sapiens, UniProt P42680); test: KINOMEscan; assay type: binding; conditions: read-out: %Ctrl @ 10000nM
T21 construct: purchased DiscoverX KINOMEscan

BTK = target: T22, BTK (Homo sapiens, UniProt Q06187); test: KINOMEscan; assay type: binding; conditions: read-out: %Ctrl @ 10000nM
T22 construct: purchased DiscoverX KINOMEscan

MAP4K3 = target: T23, MAP4K3 (Homo sapiens, UniProt Q8IVH8); test: KINOMEscan; assay type: binding; conditions: read-out: %Ctrl @ 10000nM
T23 construct: purchased DiscoverX KINOMEscan

EGFR(T790M) = target: T24, EGFR(T790M) (Homo sapiens, UniProt P00533, T790M); test: KINOMEscan; assay type: binding; conditions: read-out: %Ctrl @ 10000nM
T24 construct: purchased DiscoverX KINOMEscan

CSNK1A1 = target: T25, CSNK1A1 (Homo sapiens, UniProt P48729); test: KINOMEscan; assay type: binding; conditions: read-out: %Ctrl @ 10000nM
T25 construct: purchased DiscoverX KINOMEscan

MAP3K3 = target: T26, MAP3K3 (Homo sapiens, UniProt Q99759); test: KINOMEscan; assay type: binding; conditions: read-out: %Ctrl @ 10000nM
T26 construct: purchased DiscoverX KINOMEscan

[3] = target: T27, JAK1(JH2domain-pseudokinase) (Homo sapiens, UniProt P23458); test: KINOMEscan; assay type: binding; conditions: read-out: %Ctrl @ 10000nM
T27 construct: JAK1(JH2domain-pseudokinase); purchased DiscoverX KINOMEscan

FRK = target: T28, FRK (Homo sapiens, UniProt P42685); test: KINOMEscan; assay type: binding; conditions: read-out: %Ctrl @ 10000nM
T28 construct: purchased DiscoverX KINOMEscan

EGFR = target: T29, EGFR (Homo sapiens, UniProt P00533); test: KINOMEscan; assay type: binding; conditions: read-out: %Ctrl @ 10000nM
T29 construct: purchased DiscoverX KINOMEscan

EPHA1 = target: T30, EPHA1 (Homo sapiens, UniProt P21709); test: KINOMEscan; assay type: binding; conditions: read-out: %Ctrl @ 10000nM
T30 construct: purchased DiscoverX KINOMEscan

ACVRL1 = target: T31, ACVRL1 (Homo sapiens, UniProt P37023); test: KINOMEscan; assay type: binding; conditions: read-out: %Ctrl @ 10000nM
T31 construct: purchased DiscoverX KINOMEscan

HCK = target: T32, HCK (Homo sapiens, UniProt P08631); test: KINOMEscan; assay type: binding; conditions: read-out: %Ctrl @ 10000nM
T32 construct: purchased DiscoverX KINOMEscan

ALK(C1156Y) = target: T33, ALK(C1156Y) (Homo sapiens, UniProt Q9UM73, C1156Y); test: KINOMEscan; assay type: binding; conditions: read-out: %Ctrl @ 10000nM
T33 construct: purchased DiscoverX KINOMEscan

JNK2 = target: T34, JNK2 (Homo sapiens, UniProt P45984); test: KINOMEscan; assay type: binding; conditions: read-out: %Ctrl @ 10000nM
T34 construct: purchased DiscoverX KINOMEscan

HPK1 = target: T35, HPK1 (Homo sapiens, UniProt Q92918); test: KINOMEscan; assay type: binding; conditions: read-out: %Ctrl @ 10000nM
T35 construct: purchased DiscoverX KINOMEscan

CDK11 = target: T36, CDK11 (Homo sapiens, UniProt Q9BWU1); test: KINOMEscan; assay type: binding; conditions: read-out: %Ctrl @ 10000nM
T36 construct: purchased DiscoverX KINOMEscan

PAMPA = conditions: PAMPA
YES = target: T37, YES (Homo sapiens, UniProt P07947); test: KINOMEscan; assay type: binding; conditions: read-out: %Ctrl @ 10000nM
T37 construct: purchased DiscoverX scanMAX; host or cells: E. coli BL21-derived host (T7 phage) or HEK-293

NDR1 = target: T38, NDR1 (Homo sapiens, UniProt Q15208); test: KINOMEscan; assay type: binding; conditions: read-out: %Ctrl @ 10000nM
T38 construct: purchased DiscoverX KINOMEscan

TIE2 = target: T39, TIE2 (Homo sapiens, UniProt Q02763); test: KINOMEscan; assay type: binding; conditions: read-out: %Ctrl @ 10000nM
T39 construct: purchased DiscoverX KINOMEscan

CDKL5 = target: T40, CDKL5 (Homo sapiens, UniProt O76039); test: KINOMEscan; assay type: binding; conditions: read-out: %Ctrl @ 10000nM
T40 construct: purchased DiscoverX KINOMEscan

T33 sequence (Q9UM73 19-1620 C1156Y): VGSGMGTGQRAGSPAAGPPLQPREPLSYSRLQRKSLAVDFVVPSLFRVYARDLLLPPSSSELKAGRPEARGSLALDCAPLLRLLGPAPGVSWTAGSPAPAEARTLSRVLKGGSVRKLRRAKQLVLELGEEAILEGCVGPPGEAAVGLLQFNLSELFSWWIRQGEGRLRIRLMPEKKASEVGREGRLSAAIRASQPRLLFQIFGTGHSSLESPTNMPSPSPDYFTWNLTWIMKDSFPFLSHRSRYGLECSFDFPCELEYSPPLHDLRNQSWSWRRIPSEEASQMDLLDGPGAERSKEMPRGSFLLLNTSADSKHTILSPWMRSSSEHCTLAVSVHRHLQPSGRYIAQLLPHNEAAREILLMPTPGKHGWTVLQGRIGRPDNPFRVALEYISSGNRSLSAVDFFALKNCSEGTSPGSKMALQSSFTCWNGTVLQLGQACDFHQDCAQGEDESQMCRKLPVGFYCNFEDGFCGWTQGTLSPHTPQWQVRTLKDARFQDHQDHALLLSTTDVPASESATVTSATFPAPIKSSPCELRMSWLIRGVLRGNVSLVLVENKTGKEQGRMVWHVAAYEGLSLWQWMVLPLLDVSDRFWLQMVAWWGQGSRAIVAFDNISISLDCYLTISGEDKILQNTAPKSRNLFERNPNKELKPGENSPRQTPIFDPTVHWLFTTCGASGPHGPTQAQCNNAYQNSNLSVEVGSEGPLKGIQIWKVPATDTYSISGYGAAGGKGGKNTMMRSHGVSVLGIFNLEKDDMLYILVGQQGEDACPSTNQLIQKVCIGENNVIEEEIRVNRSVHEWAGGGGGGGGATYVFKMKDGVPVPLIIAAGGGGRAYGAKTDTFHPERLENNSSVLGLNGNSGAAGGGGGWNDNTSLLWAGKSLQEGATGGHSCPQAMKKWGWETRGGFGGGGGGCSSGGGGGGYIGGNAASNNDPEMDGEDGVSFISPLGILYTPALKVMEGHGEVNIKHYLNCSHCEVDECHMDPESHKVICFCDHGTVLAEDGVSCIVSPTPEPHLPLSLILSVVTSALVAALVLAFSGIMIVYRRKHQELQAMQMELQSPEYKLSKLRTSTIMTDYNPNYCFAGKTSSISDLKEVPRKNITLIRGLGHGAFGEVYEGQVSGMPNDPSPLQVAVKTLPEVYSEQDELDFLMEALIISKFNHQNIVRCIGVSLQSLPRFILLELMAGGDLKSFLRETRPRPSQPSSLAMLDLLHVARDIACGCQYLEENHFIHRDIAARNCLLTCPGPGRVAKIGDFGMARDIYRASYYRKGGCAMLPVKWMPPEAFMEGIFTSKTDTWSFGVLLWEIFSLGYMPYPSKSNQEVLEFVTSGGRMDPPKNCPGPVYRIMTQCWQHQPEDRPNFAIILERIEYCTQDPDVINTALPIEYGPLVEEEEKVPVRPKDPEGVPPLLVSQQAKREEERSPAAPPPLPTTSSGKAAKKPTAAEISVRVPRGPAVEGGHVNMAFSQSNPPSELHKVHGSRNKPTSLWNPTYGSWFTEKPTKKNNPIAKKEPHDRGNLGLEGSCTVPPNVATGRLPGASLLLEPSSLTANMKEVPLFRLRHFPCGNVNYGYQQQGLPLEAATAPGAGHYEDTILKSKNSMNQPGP
T35 sequence (Q92918 whole entry): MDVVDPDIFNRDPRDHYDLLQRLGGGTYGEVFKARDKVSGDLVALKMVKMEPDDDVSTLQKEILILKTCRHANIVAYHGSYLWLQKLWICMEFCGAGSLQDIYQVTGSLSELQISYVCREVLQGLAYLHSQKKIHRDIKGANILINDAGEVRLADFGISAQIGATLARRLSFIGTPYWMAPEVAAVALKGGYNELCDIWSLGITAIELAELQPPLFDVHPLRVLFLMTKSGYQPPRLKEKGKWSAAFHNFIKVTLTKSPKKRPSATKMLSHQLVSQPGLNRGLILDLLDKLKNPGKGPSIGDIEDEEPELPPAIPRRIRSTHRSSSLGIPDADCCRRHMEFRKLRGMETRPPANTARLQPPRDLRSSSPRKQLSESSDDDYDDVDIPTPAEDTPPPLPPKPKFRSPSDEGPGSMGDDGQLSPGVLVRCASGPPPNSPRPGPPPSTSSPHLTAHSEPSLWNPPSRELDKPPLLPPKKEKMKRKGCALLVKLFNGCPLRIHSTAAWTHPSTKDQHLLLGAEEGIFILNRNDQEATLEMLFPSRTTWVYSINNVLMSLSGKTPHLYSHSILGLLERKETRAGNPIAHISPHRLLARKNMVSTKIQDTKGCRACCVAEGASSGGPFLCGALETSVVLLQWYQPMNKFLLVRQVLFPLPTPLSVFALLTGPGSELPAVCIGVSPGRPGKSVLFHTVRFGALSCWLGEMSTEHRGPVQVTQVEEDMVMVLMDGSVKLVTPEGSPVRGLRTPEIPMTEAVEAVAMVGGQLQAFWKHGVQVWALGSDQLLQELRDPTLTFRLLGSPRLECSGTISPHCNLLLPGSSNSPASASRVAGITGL
T6 sequence (O14730 whole entry): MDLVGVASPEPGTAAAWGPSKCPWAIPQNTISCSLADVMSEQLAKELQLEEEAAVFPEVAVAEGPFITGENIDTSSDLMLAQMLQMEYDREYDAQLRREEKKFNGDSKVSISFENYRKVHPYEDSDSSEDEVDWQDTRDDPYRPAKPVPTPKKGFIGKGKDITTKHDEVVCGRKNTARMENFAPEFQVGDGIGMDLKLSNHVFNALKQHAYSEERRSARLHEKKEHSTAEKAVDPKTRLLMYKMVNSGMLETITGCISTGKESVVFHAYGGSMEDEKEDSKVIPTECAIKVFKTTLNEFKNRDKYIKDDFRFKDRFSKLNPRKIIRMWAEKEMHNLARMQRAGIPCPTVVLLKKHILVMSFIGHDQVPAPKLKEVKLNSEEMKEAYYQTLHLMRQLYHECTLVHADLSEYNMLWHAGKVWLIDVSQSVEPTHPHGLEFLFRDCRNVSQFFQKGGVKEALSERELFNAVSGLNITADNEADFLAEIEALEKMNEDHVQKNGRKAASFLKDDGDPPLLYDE
T13 sequence (P35590 22-1138): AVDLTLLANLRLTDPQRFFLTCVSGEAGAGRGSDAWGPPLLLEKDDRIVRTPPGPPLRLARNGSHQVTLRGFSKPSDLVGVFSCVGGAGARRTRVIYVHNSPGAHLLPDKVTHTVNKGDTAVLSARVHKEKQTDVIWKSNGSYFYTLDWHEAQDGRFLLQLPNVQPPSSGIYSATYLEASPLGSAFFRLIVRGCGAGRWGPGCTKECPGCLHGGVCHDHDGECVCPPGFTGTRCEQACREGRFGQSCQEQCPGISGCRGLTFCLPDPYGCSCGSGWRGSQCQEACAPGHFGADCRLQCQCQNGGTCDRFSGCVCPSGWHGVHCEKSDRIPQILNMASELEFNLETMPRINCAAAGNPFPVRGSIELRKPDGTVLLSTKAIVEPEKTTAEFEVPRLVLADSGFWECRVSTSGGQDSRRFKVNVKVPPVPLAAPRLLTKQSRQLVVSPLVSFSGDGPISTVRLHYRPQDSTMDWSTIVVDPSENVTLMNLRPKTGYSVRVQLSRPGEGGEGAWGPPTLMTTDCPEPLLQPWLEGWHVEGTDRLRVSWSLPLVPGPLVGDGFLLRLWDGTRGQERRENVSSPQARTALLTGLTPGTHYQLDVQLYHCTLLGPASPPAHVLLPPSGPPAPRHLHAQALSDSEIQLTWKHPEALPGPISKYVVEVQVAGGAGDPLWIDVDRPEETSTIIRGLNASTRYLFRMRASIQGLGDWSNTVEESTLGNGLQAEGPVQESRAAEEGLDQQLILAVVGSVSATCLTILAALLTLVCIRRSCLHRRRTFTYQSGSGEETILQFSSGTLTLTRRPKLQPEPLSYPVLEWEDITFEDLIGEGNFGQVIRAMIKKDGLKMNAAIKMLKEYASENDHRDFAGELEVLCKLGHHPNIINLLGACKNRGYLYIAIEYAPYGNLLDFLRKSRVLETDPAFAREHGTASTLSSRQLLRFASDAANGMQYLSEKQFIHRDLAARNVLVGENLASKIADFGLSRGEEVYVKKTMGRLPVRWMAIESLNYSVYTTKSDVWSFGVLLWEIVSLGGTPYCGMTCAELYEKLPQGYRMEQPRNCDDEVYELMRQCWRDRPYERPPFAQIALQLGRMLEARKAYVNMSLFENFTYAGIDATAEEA
T34 sequence (P45984 whole entry): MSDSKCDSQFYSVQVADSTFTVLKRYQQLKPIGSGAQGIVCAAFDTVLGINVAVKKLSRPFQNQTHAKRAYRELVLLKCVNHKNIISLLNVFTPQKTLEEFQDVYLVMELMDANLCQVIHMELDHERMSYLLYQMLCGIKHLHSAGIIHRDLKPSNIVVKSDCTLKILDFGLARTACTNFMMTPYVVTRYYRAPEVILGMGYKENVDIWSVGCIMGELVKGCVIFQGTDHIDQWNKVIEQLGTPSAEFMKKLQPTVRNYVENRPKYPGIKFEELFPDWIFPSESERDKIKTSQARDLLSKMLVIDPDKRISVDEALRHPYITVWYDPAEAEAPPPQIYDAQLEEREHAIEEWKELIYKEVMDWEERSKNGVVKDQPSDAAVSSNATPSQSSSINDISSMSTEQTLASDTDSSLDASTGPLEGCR
T11 sequence (O75582 1-387 limits assumed): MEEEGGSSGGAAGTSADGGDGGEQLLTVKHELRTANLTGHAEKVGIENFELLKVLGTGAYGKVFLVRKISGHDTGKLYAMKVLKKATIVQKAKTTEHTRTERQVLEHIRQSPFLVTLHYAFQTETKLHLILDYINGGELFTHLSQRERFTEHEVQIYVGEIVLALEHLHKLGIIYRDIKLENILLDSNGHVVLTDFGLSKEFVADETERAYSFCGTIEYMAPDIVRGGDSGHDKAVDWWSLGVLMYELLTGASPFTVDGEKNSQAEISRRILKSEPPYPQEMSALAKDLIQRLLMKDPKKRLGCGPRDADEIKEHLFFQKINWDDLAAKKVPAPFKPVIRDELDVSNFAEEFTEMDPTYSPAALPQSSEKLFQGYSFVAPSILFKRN

Q: With CC(C)c1ccc(CC(=O)N2CCN(c3ccc(C#N)nn3)CC2)cc1 [PZ-2891, 6-(4-(2-(4-isopropylphenyl)acetyl)piperazin-1-yl)pyridazine-3-carbonitrile] as the molecule, how does the remaining binding at 10 µM (INSR) read?
A: The remaining binding at 10 µM was 84%.

Q: And the remaining binding at 10 µM (LCK)?
A: The remaining binding at 10 µM was 98%.

Q: And the remaining binding at 10 µM (PAK4)?
A: The remaining binding at 10 µM was 92%.

Q: And the remaining binding at 10 µM (FGFR3(G697C))?
A: Its remaining binding at 10 µM is 99%.

Q: And the remaining binding at 10 µM (PRKCH)?
A: Its remaining binding at 10 µM is 92%.

Q: What about the remaining binding at 10 µM (RIOK3) of the same molecule?
A: The remaining binding at 10 µM was 100%.

Q: And the remaining binding at 10 µM (FGFR1)?
A: Its remaining binding at 10 µM is 87%.

Q: What about the remaining binding at 10 µM (PAK1) of the same molecule?
A: The remaining binding at 10 µM was 76%.

Q: What about the remaining binding at 10 µM (CLK2) of the same molecule?
A: Its remaining binding at 10 µM is 94%.

Q: And the remaining binding at 10 µM (GCN2(Kin.Dom.2,S808G))?
A: The remaining binding at 10 µM was 87%.

Q: What about the remaining binding at 10 µM [1] of the same molecule?
A: The remaining binding at 10 µM was 93%.

Q: What about the remaining binding at 10 µM (EPHA6) of the same molecule?
A: Its remaining binding at 10 µM is 89%.

Q: What about the remaining binding at 10 µM (TIE1) of the same molecule?
A: Its remaining binding at 10 µM is 85%.

Q: What about the remaining binding at 10 µM (DAPK1) of the same molecule?
A: The remaining binding at 10 µM was 63%.

Q: And the remaining binding at 10 µM (DCAMKL2)?
A: Its remaining binding at 10 µM is 89%.

Q: What about the remaining binding at 10 µM [2] of the same molecule?
A: Its remaining binding at 10 µM is 89%.

Q: And the remaining binding at 10 µM (EGFR(G719S))?
A: The remaining binding at 10 µM was 91%.

Q: What about the remaining binding at 10 µM (MYLK4) of the same molecule?
A: Its remaining binding at 10 µM is 92%.

Q: And the remaining binding at 10 µM (ACVR1)?
A: The remaining binding at 10 µM was 88%.

Q: What about the remaining binding at 10 µM (EGFR(S752-I759del)) of the same molecule?
A: The remaining binding at 10 µM was 100%.

Q: And the remaining binding at 10 µM (TEC)?
A: Its remaining binding at 10 µM is 79%.

Q: What about the remaining binding at 10 µM (BTK) of the same molecule?
A: Its remaining binding at 10 µM is 94%.

Q: What about the remaining binding at 10 µM (MAP4K3) of the same molecule?
A: The remaining binding at 10 µM was 94%.

Q: What about the remaining binding at 10 µM (EGFR(T790M)) of the same molecule?
A: The remaining binding at 10 µM was 78%.

Q: What about the remaining binding at 10 µM (CSNK1A1) of the same molecule?
A: Its remaining binding at 10 µM is 66%.

Q: And the remaining binding at 10 µM (MAP3K3)?
A: The remaining binding at 10 µM was 65%.

Q: And the remaining binding at 10 µM [3]?
A: The remaining binding at 10 µM was 47%.

Q: And the remaining binding at 10 µM (FRK)?
A: Its remaining binding at 10 µM is 86%.

Q: What about the remaining binding at 10 µM (EGFR) of the same molecule?
A: Its remaining binding at 10 µM is 78%.

Q: And the remaining binding at 10 µM (EPHA1)?
A: The remaining binding at 10 µM was 95%.

Q: What about the remaining binding at 10 µM (ACVRL1) of the same molecule?
A: The remaining binding at 10 µM was 100%.

Q: And the remaining binding at 10 µM (HCK)?
A: Its remaining binding at 10 µM is 79%.

Q: And the remaining binding at 10 µM (ALK(C1156Y))?
A: Its remaining binding at 10 µM is 74%.

Q: And the remaining binding at 10 µM (JNK2)?
A: Its remaining binding at 10 µM is 79%.

Q: What about the remaining binding at 10 µM (HPK1) of the same molecule?
A: The remaining binding at 10 µM was 100%.

Q: And the remaining binding at 10 µM (CDK11)?
A: Its remaining binding at 10 µM is 78%.

Q: And the “PAMPA; Avg Pe” value (PAMPA)?
A: Its value is 413 10-6 cm/s.

Q: And the remaining binding at 10 µM (YES)?
A: Its remaining binding at 10 µM is 90%.

Q: And the remaining binding at 10 µM (NDR1)?
A: The remaining binding at 10 µM was 75%.

Q: What about the remaining binding at 10 µM (TIE2) of the same molecule?
A: The remaining binding at 10 µM was 97%.

Q: What about the remaining binding at 10 µM (CDKL5) of the same molecule?
A: Its remaining binding at 10 µM is 67%.
